Consider eight compounds from patent publication US10583112B2, “Benzo[b]furans as bromodomain inhibitors” (GlaxoSmithKline Intellectual Property (No. 2) Limited, priority 2016, dated 2020).

For one test, the target named is T1, BRD4 BD1 (Homo sapiens, UniProt O60885, Y390A).
T1 construct: BRD4 (1-477) (Y97A) and (Y390A); made in house; host or cells: E. coli (pET15b vector)
As to the kind of experiment: BRD4 BD1 TR-FRET competition assay. The conditions noted are these: mean, n given; read-out: pIC50 in the BRD4 BD1 TR-FRET assay (converted). The class given is binding. How it is done: Bromodomain binding was assessed utilising a time resolved fluorescent resonance energy transfer (TR-FRET) competition assay. To enable this approach a known, high affinity, pan-BET interacting small molecule was labelled with Alexa Fluor® 647, which is a far-red-fluorescent dye (Reference Compound X). Reference Compound X acts as a reporter of bromodomain binding and is the acceptor fluorophore component of the TR-FRET pair. Europium chelate, conjugated to an anti-6*His antibody, was utilised as the donor fluorophore in the TR-FRET pair. […]
The competition of the compounds of formula (I) with Reference Compound X for binding to the BET family (BRD2, BRD3, BRD4 and BRDT) was assessed using protein truncates spanning both bromodomain 1 (BD1) and bromodomain 2 (BD2). […] Utilising a Fluorescence Polarisation approach, binding affinities for each of the single and double mutants for Reference Compound X were determined. […]
All assay components were dissolved in an assay buffer composing of 50 mM HEPES pH7.4, 50 mM NaCl, 5% Glycerol, 1 mM DTT and 1 mM CHAPS. […] TR-FRET was detected using a Perkin Elmer Multimode plate reader, by exciting the donor fluorophore at λ337 nm and subsequently, after a delay of 50 μsecs, measuring emission of the donor and acceptor fluorophores at λ615 nm and λ665 nm, respectively. […]
Background: TR-FRET usually uses a lanthanide donor and a delayed reading to cut background.

The next test deals with T2, BRD4 BD2 (Homo sapiens, UniProt O60885, Y97A).
T2 construct: BRD4 (1-477) (Y97A) and (Y390A); made in house; host or cells: E. coli (pET15b vector)
As to the kind of experiment: BRD4 BD2 TR-FRET competition assay. The class given is binding. The conditions noted are these: for Selectivity for BRD4 BD2 over BRD4 BD1 (BRD4 BD2 pIC50 - BRD4 BD1 pIC50): in at least one of the TR-FRET assays; for fold selective for BRD4 BD2 over BRD4 BD1: inferred from the log unit selectivity; for IC50: mean where stated, n given, read-out: pIC50 in the BRD4 BD2 TR-FRET assay (converted). Here is the method:
Bromodomain binding was assessed utilising a time resolved fluorescent resonance energy transfer (TR-FRET) competition assay. […] Europium chelate, conjugated to an anti-6*His antibody, was utilised as the donor fluorophore in the TR-FRET pair.
In order to generate a TR-FRET signal, donor fluorophore is excited by a laser at λ337 nm, which subsequently leads to emission at λ618 nm.
In order to monitor differential binding to either BD1 or BD2, single residue mutations of key tyrosines to alanine were made in the acetyl lysine binding pockets. To validate this approach, a double residue mutant tandem domain protein was produced for each of the BET family members.
Final purification was completed by Superdex 200 prep grade size exclusion column. Purified protein was stored at −80° C. in 20 mM HEPES pH 7.5 and 100 mM NaCl.
All assay components were dissolved in an assay buffer composing of 50 mM HEPES pH7.4, 50 mM NaCl, 5% Glycerol, 1 mM DTT and 1 mM CHAPS. […] An equal volume of 3 nM of anti-6*His Europium chelate was added to all wells, followed by a further 30 minute incubation at room temperature. TR-FRET was detected using a Perkin Elmer Multimode plate reader, by exciting the donor fluorophore at λ337 nm and subsequently, after a delay of 50 μsecs, measuring emission of the donor and acceptor fluorophores at λ615 nm and λ665 nm, respectively.
cA four parameter curve fit of the following form was then applied: y=a+((b−a)/(1+(10^x/10^c)^d) • Where ‘a’ is the minimum, ‘b’ is the Hill slope, ‘c’ is the pIC50 and ‘d’ is the maximum.

Test [1] concerns double residue mutant tandem domain protein of each of the BET family members. The experiment in a line: Fluorescence Polarisation binding affinity, double mutants. On the set-up: species or system Human. Here is the method:
(§1) The competition of the compounds of formula (I) with Reference Compound X for binding to the BET family (BRD2, BRD3, BRD4 and BRDT) was assessed using protein truncates spanning both bromodomain 1 (BD1) and bromodomain 2 (BD2). In order to monitor differential binding to either BD1 or BD2, single residue mutations of key tyrosines to alanine were made in the acetyl lysine binding pockets. To validate this approach, a double residue mutant tandem domain protein was produced for each of the BET family members. Utilising a Fluorescence Polarisation approach, binding affinities for each of the single and double mutants for Reference Compound X were determined. […] The affinities of the single mutated bromdomain tandem proteins for Reference Compound X were equi-potent with the corresponding non-mutated BET protein. […] In the TR-FRET competition assay, Reference Compound X is used at a concentration that is equivalent to the Kd for the non-mutated bromodomain, which ensures that no binding at the mutated bromodomain is detected. […]

The subject of test [2] is single mutated bromodomain tandem proteins (BET family). As to the kind of experiment: Fluorescence Polarisation binding affinity, single mutants. The arrangement: species or system Human. How it is done:
as §1
(Fluorescence polarisation rises when a labelled molecule tumbles more slowly, as on binding a larger partner.)

Where only a bound is given, the exact number is not on record here.

Regarding `CNC(=O)c1cc(C(=O)N[C@H]2[C@@H]3CN(C(=O)OC(C)(C)C)C[C@@H]32)cc2c1O[C@H](C)[C@H]2c1ccccc1` [Example 38, (1R,5S,6S)-tert-Butyl 6-((2R,3S)-2-methyl-7-(methylcarbamoyl)-3-phenyl-2,3-dihydrobenzofuran-5-carboxamido)-3-azabicyclo[3.1.0]hexane-3-carboxylate], the IC50 on BRD4 BD1 is 20 µM. On BRD4 BD2, the “Selectivity for BRD4 BD2 over BRD4 BD1 (BRD4 BD2 pIC50 - BRD4 BD1 pIC50)” value stood at 3.3 log unit, the “fold selective for BRD4 BD2 over BRD4 BD1” value is listed as “at least 100 fold” and the IC50 was 10 nM.

On to `CNC(=O)c1cc(C(=O)NCCCC2CNCCO2)cc2c1O[C@H](C)[C@H]2c1ccccc1` (stereo partly drawn) [Example 54, (2R,3S)—N^7,2-Dimethyl-N^5-(3-(morpholin-2-yl)propyl)-3-phenyl-2,3-dihydrobenzofuran-5,7-dicarboxamide], for which the IC50 on BRD4 BD1 was 25.1 µM. For the same compound, at BRD4 BD2, the “Selectivity for BRD4 BD2 over BRD4 BD1 (BRD4 BD2 pIC50 - BRD4 BD1 pIC50)” value worked out at 3.2 log unit, the “fold selective for BRD4 BD2 over BRD4 BD1” value is “at least 1000 fold” and the IC50 was 15.8 nM.

Regarding `COc1ccc2c(c1)C(c1ccc(Cl)cc1)=N[C@@H](CC(=O)NCCCCCNC(=O)CCCCCC1(C)/C(=C/C=C/C=C/C3=[N+](CCCCS(=O)(=O)O)c4ccc(S(=O)(=O)O)cc4C3(C)C)N(CCCCS(=O)(=O)[O-])c3ccc(S(=O)(=O)O)cc31)c1nnc(C)n1-2` (stereo partly drawn) [Reference Compound X], in test [1], the “reduction in Kd (affinity) versus non mutated, wild type tandem BET proteins” value was greater than 1000 fold. For the same compound, the “affinity versus corresponding non-mutated BET protein” value in test [2] was “equi-potent”.

As for `CCNC(=O)c1cc(C(=O)NC)c2c(c1)[C@@H](c1ccccc1)[C@H](C)O2` [Example 101, (2S,3R)-N^5-ethyl-N^7,2-dimethyl-3-phenyl-2,3-dihydrobenzofuran-5,7-dicarboxamide], the IC50 on BRD4 BD2 is 1000 to 100000 nM.

For `CNC(=O)c1cc(C(=O)NCC(C)O)cc2c1O[C@@H](C)[C@H]2c1ccccc1` (stereo partly drawn) [Example 7, (2S,3S)—N^5-(2-hydroxypropyl)-N^7,2-dimethyl-3-phenyl-2,3-dihydrobenzofuran-5,7-dicarboxamide], on BRD4 BD2, the IC50 is 1000 to 100000 nM.

As to `CNC(=O)c1cc(C(=O)N[C@H]2C[C@@H]2CCO)cc2c1O[C@@H](CF)[C@@H]2c1ccccc1` (mixture of isomers) [Example 197, 2R,3R)-2-(fluoromethyl)-N^5-((trans)-2-(2-hydroxyethyl)cyclopropyl)-N^7-methyl-3-phenyl-2,3-dihydrobenzofuran-5,7-dicarboxamide (diastereomeric mixture)], the IC50 at BRD4 BD2 is 1000 to 100000 nM.

On to `CNC(=O)c1cc(C(=O)Nc2ncn(C)n2)cc2c1O[C@@H](CF)[C@@H]2c1ccccc1` [Example 192, (2R,3R)-2-(fluoromethyl)-N^7-methyl-N^5-(1-methyl-1H-1,2,4-triazol-3-yl)-3-phenyl-2,3-dihydrobenzofuran-5,7-dicarboxamide], for which, on BRD4 BD2, the IC50 is 1000 to 100000 nM.

In the case of `CNC(=O)c1cc(C(=O)N[C@H]2[C@@H]3COC[C@@H]32)cc2c1O[C@@H](C)[C@@H]2c1cccc(OCCO)c1` [Example 181, (2S,3R)-N^5-((1R,5S,6r)-3-oxabicyclo[3.1.0]hexan-6-yl)-3-(3-(2-hydroxyethoxy)phenyl)-N^7,2-dimethyl-2,3-dihydrobenzofuran-5,7-dicarboxamide], at BRD4 BD2, the IC50 was 1000 to 100000 nM.
